Test results reported in patent publication US20050256056A1, “Peptide inhibitors of HIV” (priority 2003, published 2005).
Read-outs that look alike come from different tables or passages of the source. Non-standard residues stand in square brackets, D forms with d. Residues, ends and D or L forms follow the SMILES beside them.

Assays:
HIV-1 NL4-3 = assay: focal infectivity assay, inhibition of HIV-1 NL4-3 in HeLa H1-JC.37 cells; format: cell-based
Text: The term “EC50” refers to the concentration of peptide that inhibits 50% viral activity, including infective activity, as measured in an in vitro assay, including a focal infectivity assay (described in Pincus, et al. Biotechniques 10:336 (1991)).
Peptides and peptide analogs that bind to an HIV target protein of interest are then screened for their effectiveness in inhibiting HIV activity in vitro. One assay for evaluating HIV inhibiting activity in vitro is a focal infectivity assay, described by Pincus, et al. Biotechniques 10:336 (1991). Preferred peptides and peptide analogs will inhibit HIV activity in vitro at a concentration of about 50 μM or less, more preferably at about 40 μM, 30 μM, 25 μM or 20 μM or less, and more preferably at about 15 μM, 10 μM or 5 μM or less.
After re-synthesis of 16 of these as soluble peptides, 13 were tested for ability to inhibit the NL4-3 clone of HIV-1 (the other 3 were insoluble). For these studies a focal infectivity assay was carried out using HeLa H1-JC.37 cells. H1-JC.37 cells are HeLa cells that naturally express the CXCR4 receptor and that have been engineered to express CD4 and CCR5 receptors (Platt, et al. J. Virol. 72:2855 (1998)). Dose-response curves were performed in triplicate experiments with 6 determinations per drug concentration in each experiment. None of these peptides inhibited growth of HeLa H1-JC.37 cells at the concentrations tested (up to 100 μM). […] The purified peak fraction was re-tested for anti-HIV activity, and the EC50 was determined to be 8 μM. The identity of the biologically active peptide has been confirmed with mass spectrometry.

ogp140 = target: T1, ogp140 (Human immunodeficiency virus type 1 group M subtype B, UniProt P19550); format: binding, HIV-1 SF162 strain; details: Table 2 peptides re-synthesized on beads
T1 construct: ogp140, which contains gp120 and the ectodomain of the gp41 subunit in a trimeric form; purchased Chiron Corporation (gift from Dr. Indresh Srivastava, not a purchase)
T1 sequence (P19550 32-675): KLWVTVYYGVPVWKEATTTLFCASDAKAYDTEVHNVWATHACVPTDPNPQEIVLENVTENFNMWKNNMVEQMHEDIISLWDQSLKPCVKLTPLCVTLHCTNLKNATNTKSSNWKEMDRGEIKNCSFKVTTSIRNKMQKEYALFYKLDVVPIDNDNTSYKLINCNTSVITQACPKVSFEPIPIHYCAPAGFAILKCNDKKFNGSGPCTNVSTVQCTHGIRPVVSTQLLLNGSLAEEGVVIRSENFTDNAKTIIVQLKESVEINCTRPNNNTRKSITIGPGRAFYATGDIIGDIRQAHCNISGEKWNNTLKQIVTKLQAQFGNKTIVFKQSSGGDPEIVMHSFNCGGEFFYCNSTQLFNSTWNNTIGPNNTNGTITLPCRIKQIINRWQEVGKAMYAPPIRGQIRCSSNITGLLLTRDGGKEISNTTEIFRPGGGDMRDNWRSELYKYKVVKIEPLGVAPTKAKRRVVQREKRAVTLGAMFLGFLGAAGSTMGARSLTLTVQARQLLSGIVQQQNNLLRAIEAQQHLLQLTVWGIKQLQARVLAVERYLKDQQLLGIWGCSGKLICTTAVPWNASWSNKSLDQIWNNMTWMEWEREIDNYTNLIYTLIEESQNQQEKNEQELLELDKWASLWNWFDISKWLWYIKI
Method: The optimal concentrations of glycoproteins for our screening assays were determined to be 0.25-1.25 μg/ml for ogp140 and 1-5 μg/ml for gp120. In order to visualize beads with bound ogp140 or gp120, these proteins were biotinylated so that an enzyme-linked colorimetric assay could be used to identify positive beads. Biotinylation was performed with Sulpho-NHS-biotin at a 5:1 molar ratio of biotin to protein. Reactions were carried out for both 3 minutes and 10 minutes to obtain different levels of biotinylation and were stopped with 2 M Tris-HCl, pH 7.4. The proteins were dialyzed for 4-5 hr to remove excess biotin.
The peptides of Table 2 were re-synthesized on beads.
These secondary libraries were screened with ogp140 under higher stringency (lower protein concentrations of both ogp140 and streptavidin-alkaline phosphatase (ST-AP)). The concentrations of ogp140 used in this screen were 0.06 mg/mL and 0.3 mg/mL. These concentrations are 4-fold lower than those used in the original screen (0.25 mg/mL and 1.25 mg/mL). The amount of ST-AP was lowered from 1:15,000 in the original screen to 1:25,000 in this screen. Approximately 75,000 beads from each library were screened.
From the 34 positive beads of the 8-mer library, the 12 darkest beads were selected for sequence analyses and the results are in Table 3.

| EC50 (HIV-1 NL4-3; NL4-3) [µM] | SMILES | EC50 (HIV-1 NL4-3; HPLC-purified peak fraction re-tested, read-out: EC50 of purified peak fraction, anti-HIV activity) [µM] | staining intensity of peptide beads in binding assays with ogp140 (ogp140) |
| --- | --- | --- | --- |
| 55 | CC(C)[C@@H](NC(=O)[C@@H](Cc1c[nH]cn1)NC(=O)[C@@H](CC(=O)O)NC(=O)[C@@H](Cc1ccccc1)NC(=O)[C@@H]1CCCN1C(=O)[C@@H](CCC(N)=O)NC(=O)[C@@H](Cc1ccc(O)cc1)NC(=O)[C@H](N)Cc1ccc(O)cc1)C(=O)O [compound 14] (H-[dY][dY][dQ]P[dF][dD][dH][dV]-OH; N-terminus and C-terminus assumed) | – | – |
| > 100 | CSCC[C@@H](NC(=O)[C@H](N)Cc1c[nH]cn1)C(=O)N[C@H](CC(N)=O)C(=O)N1CCC[C@H]1C(=O)N[C@H](Cc1ccccc1)C(=O)N[C@H](Cc1ccc(O)cc1)C(=O)N[C@H](Cc1ccc(O)cc1)C(=O)N[C@H](CCC(N)=O)C(=O)O [compound 13] (H-[dH][dM][dN]P[dF][dY][dY][dQ]-OH; N-terminus and C-terminus assumed) | – | – |
| > 100 | CC[C@@H](C)[C@@H](NC(=O)[C@@H](Cc1c[nH]c2ccccc12)NC(=O)[C@@H]1CCCN1C(=O)[C@@H](Cc1ccc(O)cc1)NC(=O)[C@@H](CO)NC(=O)[C@H]1CCCN1C(=O)[C@@H](C)N)C(=O)N[C@H](CCCNC(=N)N)C(=O)O [compound 1] (H-[dA][dP][dS][dY]P[dW][dI][dR]-OH; N-terminus and C-terminus assumed) | – | – |

| SMILES | EC50 (HIV-1 NL4-3; NL4-3) [µM] | EC50 (HIV-1 NL4-3; HPLC-purified peak fraction re-tested, read-out: EC50 of purified peak fraction, anti-HIV activity) [µM] | staining intensity of peptide beads in binding assays with ogp140 (ogp140) |
| --- | --- | --- | --- |
| CC[C@@H](C)[C@@H](NC(=O)[C@@H](Cc1c[nH]c2ccccc12)NC(=O)[C@@H]1CCCN1C(=O)[C@@H](Cc1ccc(O)cc1)NC(=O)[C@@H](CO)NC(=O)[C@H]1CCCN1C(=O)[C@H](N)CCSC)C(=O)N[C@H](CCCNC(=N)N)C(=O)O [compound 16, mpsyPwir] (H-[dM][dP][dS][dY]P[dW][dI][dR]-OH; N-terminus and C-terminus assumed) | 17 | 8 | stain more intensively |
